This note sets out measurements from US20140107100A1, “Benzoxazepines as Inhibitors of PI3K/mTOR and Methods of Their Use and Manufacture” (EXELIXIS, INC., priority 2010, published 2014).

In general, IC50 refers to the point on the concentration scale where inhibition reaches its midpoint.

The target in the assay is mTOR/GbL/Raptor (mTORC1) (Homo sapiens, UniProt P42345). Description: mTOR/GbL/Raptor (mTORC1) ELISA assay, phosphorylation of 4E-BP1. The format is biochemical. The conditions noted are these: 0.2 nM mTORC1, 40 uM ATP, 50 nM NHis-tagged 4E-BP1, 120 minutes; read-out: IC50 in this assay (mTORC1 ELISA). In a few lines: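 Phospho-4E-BP1 was quantified by luminescent ELISA (anti-phospho-4E-BP1 IgG, HRP-tagged secondary) after capture of the His-tagged substrate on Ni-chelate plates.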
In the case of `Cc1cc(-c2cnc3sc(N)nc3c2)cc2c1OCCN(c1ncnc3c1CC(C)(C)C=C3)C2` [Compound 23, 6-[4-(6,6-dimethyl-5,6-dihydroquinoazolin-4-yl)-9-methyl-2,3,4,5-tetrahydro-1,4-benzoxazepin-7-yl][1,3]thiazolo[5,4-b]pyridin-2-amine], the 50% inhibitory concentration (IC50) is not above 0.1 µM.
The figure for `CCc1nc(CN(C)C)nc(N2CCOc3c(C)cc(-c4cnc5sc(N)nc5c4)cc3C2)c1C(C)C` [Compound 88, 6-(4-{2-[(dimethylamino)methyl]-6-ethyl-5-(1-methylethyl)pyrimidin-4-yl}-9-methyl-2,3,4,5-tetrahydro-1,4-benzoxazepin-7-yl)[1,3]thiazolo[5,4-b]pyridin-2-amine] is not above 0.1 µM; for `Cc1cc(-c2cnc3sc(N)nc3c2)cc2c1OCCN(c1nc(CN(C)C)nc(Cl)c1C(C)C)C2` [Compound 63, 6-(4-{6-chloro-2-[(dimethylamino)methyl]-5-(1-methylethyl)pyrimidin-4-yl}-9-methyl-2,3,4,5-tetrahydro-1,4-benzoxazepin-7-yl)[1,3]thiazolo[5,4-b]pyridin-2-amine] it is not above 0.1 µM.
In the case of `COc1ncc(-c2cc(C)c3c(c2)CN(c2nc(N)nc(C)c2C(C)C)CCO3)cc1NS(C)(=O)=O` [Compound 21, N-[5-{4-[2-amino-6-methyl-5-(1-methylethyl)pyrimidin-4-yl]-9-methyl-2,3,4,5-tetrahydro-1,4-benzoxazepin-7-yl}-2-(methyloxy)pyridin-3-yl]methanesulfonamide], the 50% inhibitory concentration (IC50) is not above 0.1 µM.
For the molecule `Cc1cc(-c2cnc3sc(N)nc3c2)cc2c1OCCN(c1nc(CN3CCC(F)(F)C3)nc(C)c1C(C)C)C2` [Compound 91, 6-(4-{2-[(3,3-difluoropyrrolidin-1-yl)methyl]-6-methyl-5-(1-methylethyl)pyrimidin-4-yl}-9-methyl-2,3,4,5-tetrahydro-1,4-benzoxazepin-7-yl)[1,3]thiazolo[5,4-b]pyridin-2-amine], the IC50 is not above 0.1 µM.
The figure for `C#Cc1c(C)nc(N)nc1N1CCOc2c(C)cc(-c3cnc4sc(N)nc4c3)cc2C1` [Compound 145, 6-[4-(2-amino-5-ethynyl-6-methylpyrimidin-4-yl)-9-methyl-2,3,4,5-tetrahydro-1,4-benzoxazepin-7-yl][1,3]thiazolo[5,4-b]pyridin-2-amine] is not above 0.1 µM; for `Cc1cc(-c2cnc3sc(N)nc3c2)cc2c1OCCN(c1nc([C@@H]3CC(F)(F)CN3)nc(C)c1C(C)C)C2` [Compound 147, 6-(4-{2-[(2S)-4,4-difluoropyrrolidin-2-yl]-6-methyl-5-(1-methylethyl)pyrimidin-4-yl}-9-methyl-2,3,4,5-tetrahydro-1,4-benzoxazepin-7-yl)[1,3]thiazolo[5,4-b]pyridin-2-amine] it is not above 0.1 µM.
`Cc1cc(-c2cnc(Cl)c(NS(C)(=O)=O)c2)cc2c1OCCN(c1nc(C(N)=O)nc(C)c1C(C)C)C2` [Compound 44, 4-[7-{6-chloro-5-[(methylsulfonyl)amino]pyridin-3-yl}-9-methyl-2,3-dihydro-1,4-benzoxazepin-4(5H)-yl]-6-methyl-5-(1-methylethyl)pyrimidine-2-carboxamide]: the IC50 was not above 0.1 µM.
The figure for `COCC(C)c1c(C)nc(C)nc1N1CCOc2c(C)cc(-c3cnc4sc(N)nc4c3)cc2C1` (stereo not shown) [Compound 153, 6-(4-{2,6-dimethyl-5-[1-methyl-2-(methyloxy)ethyl]pyrimidin-4-yl}-9-methyl-2,3,4,5-tetrahydro-1,4-benzoxazepin-7-yl)[1,3]thiazolo[5,4-b]pyridin-2-amine] is not above 0.1 µM.
The figure for `Cc1cc(-c2ccc3c(c2)OCO3)cc2c1OCCN(c1nc(N)nc(C)c1C(C)C)C2` [Compound 73, 4-[7-(1,3-benzodioxol-5-yl)-9-methyl-2,3-dihydro-1,4-benzoxazepin-4(5H)-yl]-6-methyl-5-(1-methylethyl)pyrimidin-2-amine] is 0.1 to 0.5 µM; for `Cc1cc(-c2cnc(Cl)c(NS(C)(=O)=O)c2)cc2c1OCCN(c1nc(CNCCF)nc(C)c1C(C)C)C2` [Compound 161, N-(2-chloro-5-{4-[2-{[(2-fluoroethyl)amino]methyl}-6-methyl-5-(1-methylethyl)pyrimidin-4-yl]-9-methyl-2,3,4,5-tetrahydro-1,4-benzoxazepin-7-yl}pyridin-3-yl)methanesulfonamide] it is not above 0.1 µM; for `Cc1cc(-c2nnc(N)s2)cc2c1OCCN(c1nc(N)nc(C)c1C)C2` [Compound 179, 4-[7-(5-amino-1,3,4-thiadiazol-2-yl)-9-methyl-2,3-dihydro-1,4-benzoxazepin-4(5H)-yl]-5,6-dimethylpyrimidin-2-amine] it is not above 0.1 µM.
The figure for `Cc1cc(-c2cnc3sc(N)nc3c2)cc2c1OCCN(c1nc(CN3CCCC3)ncc1C(C)C)C2` [Compound 92, 6-{9-methyl-4-[5-(1-methylethyl)-2-(pyrrolidin-1-ylmethyl)pyrimidin-4-yl]-2,3,4,5-tetrahydro-1,4-benzoxazepin-7-yl}[1,3]thiazolo[5,4-b]pyridin-2-amine] is not above 0.1 µM; for `COCc1c(C)nc(C)nc1N1CCOc2c(C)cc(-c3cnc4sc(N)nc4c3)cc2C1` [Compound 143, 6-(4-{2,6-dimethyl-5-[(methyloxy)methyl]pyrimidin-4-yl}-9-methyl-2,3,4,5-tetrahydro-1,4-benzoxazepin-7-yl)[1,3]thiazolo[5,4-b]pyridin-2-amine] it is not above 0.1 µM; for `Cc1cc(-c2cnc3sc(N)nc3c2)cc2c1OCCN(c1nc(N)c(C#N)cc1C#N)C2` [Compound 32, 2-amino-6-[7-(2-amino[1,3]thiazolo[5,4-b]pyridin-6-yl)-9-methyl-2,3-dihydro-1,4-benzoxazepin-4(5H)-yl]pyridine-3,5-dicarbonitrile] it is not above 0.1 µM.
Consider `Cc1ncc(-c2cc(C)c3c(c2)CN(c2nc(N)nc(C)c2C(C)C)CCO3)s1` [Compound 118, 4-methyl-5-(1-methylethyl)-6-[9-methyl-7-(2-methyl-1,3-thiazol-5-yl)-2,3-dihydro-1,4-benzoxazepin-4(5H)-yl]pyrimidin-2-amine], for which the IC50 fell in the range of 0.1 to 0.5 µM.
The figure for `COCCc1nc(C)c(C(C)C)c(N2CCOc3c(C)cc(-c4cnc(Cl)c(NS(C)(=O)=O)c4)cc3C2)n1` [Compound 160, N-[2-chloro-5-(9-methyl-4-{6-methyl-5-(1-methylethyl)-2-[2-(methyloxy)ethyl]pyrimidin-4-yl}-2,3,4,5-tetrahydro-1,4-benzoxazepin-7-yl)pyridin-3-yl]methanesulfonamide] is not above 0.1 µM.
On to `Cc1cc(-c2cnc3sc(N)nc3c2)cc2c1OCCN(c1nc(C(F)F)nc(C)c1C(C)C)C2` [Compound 144, 6-{4-[2-(difluoromethyl)-6-methyl-5-(1-methylethyl)pyrimidin-4-yl]-9-methyl-2,3,4,5-tetrahydro-1,4-benzoxazepin-7-yl}[1,3]thiazolo[5,4-b]pyridin-2-amine], for which the IC50 was not above 0.1 µM.
The figure for `Cc1cc(-c2cnc3sc(N)nc3c2)cc2c1OCCN(c1nc(CNCCF)nc(C)c1C(C)C)C2` [Compound 126, 6-{4-[2-{[(2-fluoroethyl)amino]methyl}-6-methyl-5-(1-methylethyl)pyrimidin-4-yl]-9-methyl-2,3,4,5-tetrahydro-1,4-benzoxazepin-7-yl}[1,3]thiazolo[5,4-b]pyridin-2-amine] is not above 0.1 µM.
